Measurements as given in patent US9469618B2, “Thiadiazolidinediones as GSK-3 inhibitors” (ASD THERAPEUTICS PARTNERS LLC, priority 2012, dated 2016).
Converted amounts (≈) assume the structure as drawn.

Assays:
[1] = target: T1, human recombinant GSK3β (N-terminal 6His-tagged recombinant enzyme with an H350L mutation) (Homo sapiens, UniProt P49841); assay: GSK-3 assay (Z'-LYTE FRET enzymatic activity); assay type: biochemical; conditions: 2 nM enzyme, 12.5 μM ATP, 2 μM Ser/Thr 9 peptide, 60 min at room temperature; concentration in M units; read-out: GSK-3 inhibition pEC50 average (converted)
T1 construct: 6His (N); purchased Millipore (Billerica, Mass., USA)
T1 sequence (P49841 whole entry, stated change not applied): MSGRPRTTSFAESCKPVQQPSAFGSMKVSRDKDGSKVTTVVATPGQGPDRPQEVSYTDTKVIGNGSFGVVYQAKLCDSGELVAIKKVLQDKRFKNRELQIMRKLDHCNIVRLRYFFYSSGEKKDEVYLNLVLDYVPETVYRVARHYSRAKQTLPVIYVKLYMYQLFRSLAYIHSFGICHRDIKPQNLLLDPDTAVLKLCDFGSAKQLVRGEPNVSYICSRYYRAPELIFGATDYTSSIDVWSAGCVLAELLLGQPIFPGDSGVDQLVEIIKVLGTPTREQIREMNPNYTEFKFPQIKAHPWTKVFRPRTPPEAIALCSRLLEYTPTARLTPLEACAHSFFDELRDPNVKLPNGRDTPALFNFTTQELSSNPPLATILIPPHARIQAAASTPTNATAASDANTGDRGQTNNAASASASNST
Method: The enzymatic activity of GSK3β was determined with a commercial system based on the Z'-LYTE® technology, available from Life Technologies (Carlsbad, Calif., USA), using human recombinant GSK3β (N-terminal 6His-tagged recombinant enzyme with an H350L mutation) from Millipore (Billerica, Mass., USA) as the enzyme source. This technology utilizes the fluorescence resonance energy transfer (“FRET”) process between fluorescein and coumarin. The assay principle is based on the differential sensitivity of phosphorylated and non-phosphorylated peptide to proteolytic cleavage, which precludes the energy transfer process between the two fluorophores attached to both sides of the cleavage site. […] The assay is performed in 384-well black plates, in a final volume of 10 μl, with 2 nM enzyme concentration in 50 mM Hepes pH 7.5, 50 mM MgCl2, 5 mM EGTA and 0.05% Brij-35, using 12.5 μM ATP and 2 μM substrate peptide. The latter is a synthetic peptide, provided by Invitrogen under the commercial name “Ser/Thr 9 peptide”, and it is based upon the sequence of a GSK3β substrate protein (glycogen synthase I) containing Ser-641. The peptide is labeled at both ends with fluorescein and coumarin. The assay is carried out in the presence of different concentrations of the tested compound, at a final 1% (v/v) DMSO concentration. After a 60 min incubation at room temperature, 5 μl of a commercial protease solution (sold by the same vendor in the assay kit) is added and a subsequent 1 h incubation at room temperature is performed, before adding 5 μl of a suitable “stop solution”, also provided by the vendor in the kit. After that, fluorescence intensity is recorded, monitoring emission at both 445 and 520 nm, upon excitation at 400 nm. An emission ratio is finally calculated, using the quotient among the emission at 445 nm divided by that at 520 nm.
The emission ratio of each tested sample is normalized to that of the control wells, so that for every compound concentration the percentage of inhibition is calculated by using the following equation:
[formula] where “S” is the emission from the wells with the tested sample, “E” is the average emission from control wells with full enzyme activity and “B” is the average emission from wells with full enzyme inhibition. Inhibition values obtained for every compound concentration are finally used to calculate the pEC50 of the tested compound, this parameter being the negative value of the logarithm of the compound concentration, in M units, causing 50% of its maximum effect (i.e., the higher the pEC50 value the higher the potency of the compound). For that purpose the data were fitted to the following equation using the nonlinear regression function of GraphPad™ Prism 5.0 (GraphPad Software Inc.): […]

[2] = Thermodynamic solubility of TDZDs; assay type: physicochemical; conditions: phosphate buffered saline, aqueous buffer, thermodynamic from solid; aqueous 0.01 M PBS pH 7.4, 2 mg/mL samples, 24 hours mixing, LC-UV
Method: Thermodynamic solubility was determined in duplicate from samples with a compound concentration of 2 mg/mL in aqueous 0.01 M phosphate buffered saline (PBS) pH 7.4 with a mixing period of 24 hours. Analysis and quantification was performed by LC-UV. Calibration lines were prepared for each compound from samples at of 1.0, 0.1, 0.01 and 0.001 mg/mL concentration in acetonitrile.

Row | SMILES | EC50 [1] [nM] | solubility thermodynamic at 24 h [2] [µg/mL]
1 | CCn1c(=O)sn(Cc2ccccc2)c1=O [Compound 1, 2-benzyl-4-ethyl-[1,2,4]thiadiazolidine-3,5-dione] | 631 | 617 (≈ 2610 µM)
2 | O=c1sn(Cc2ccccc2)c(=O)n1CC1CCCO1 (stereo not drawn) [Compound 2, 2-benzyl-4-(tetrahydro-furan-2-ylmethyl)-[1,2,4]thiadiazolidine-3,5-dione] | 2000 | 1030 (≈ 3520 µM)
3 | O=c1sn(-c2cccc3ccccc23)c(=O)n1Cc1ccccc1 [Compound 5, reference compound] | – | ≤ 1

Now from value to compound:

Row | EC50 [1] [nM] | solubility thermodynamic at 24 h [2] [µg/mL] | SMILES
4 | 1580 | 1840 (≈ 7300 µM) | O=c1sn(Cc2ccccc2)c(=O)n1CCO [Compound 4, 2-benzyl-4-(2-hydroxy-ethyl)-[1,2,4]thiadiazolidine-3,5-dione]
5 | 25.1 | 22 (≈ 57.8 µM) | CCOC(=O)Cn1c(=O)sn(C(Cc2ccccc2)C(=O)OCC)c1=O (stereo not drawn) [Compound 3]
